Data published in patent US10105365B2, “Solid antiviral dosage forms” (AbbVie Inc., priority 2014, dated 2018).

Assays:
[1] = Human pharmacokinetic study, Example 5 Arm II (multiple dose, crossover); format: in vivo; details: for AUC: read-out: AUC24, geometric mean; for concentration at 24 h: read-out: C24, geometric mean
Procedure: (§1) A Phase 1, non-fasting, open-label, two-arm, four-period, randomized, crossover study was conducted to compare and characterize the pharmacokinetics of (i) Triple Tablet when co-administered with Single Tablet, and (ii) Formulation C5-12 as discussed below. Part 1 was a single dose, two-treatment, randomized, four period, two sequence replicated crossover study with 88 subjects. Doses in the four periods were separated by at least 10 days. Part 2 was a multiple-dose, two-treatment, two period, randomized crossover study with 66 subjects. Dosing in each period was 14 days and doses in the two periods were separated by at least 10 days.
(§2) Adult male and female subjects in general good health were selected to participate in the study according to the selection criteria. Subjects meeting the selection criteria were randomly assigned to one of the sequences of Regimens A and B (four sequences for Arm I and two sequences for Arm II) as shown below in Table 5-A.
(§3) Study drug was administered as provided below in Table 5-B.
(§4) Each study regimen was taken orally with approximately 240 mL of water approximately 30 minutes after the start of standardized breakfast. Study regimens were administered orally in the morning on Study Day 1 of each period. Serial blood samples for pharmacokinetic analysis were collected 72 hours after dosing in each period.

[2] = Human pharmacokinetic study, Example 4 Arm II (single dose, crossover); format: in vivo; details: for AUC(0-inf): read-out: AUC∞, geometric mean; for concentration at 24 h: read-out: C24, geometric mean
Procedure: Formulation C5-12 and a second formulation were tested in Arm II of the study. Adult male and female subjects (N=30 for combined Arm I and Arm II studies) in general good health were selected to participate in the study according to the selection criteria. Subjects meeting the selection criteria were randomly assigned to one of the Regimen sequences as shown below in Table 4-A.
Study drug was administered as provided below in Table 4-B.
as §4, with “each period. For Regimen A the evening dose of the Single Tablet was taken orally with approximately 240 mL of water approximately 30 minutes after the start of the evening snack. Serial blood” for “each period. Serial blood”
The data presented in Tables 4-C through 4-G are preliminary data and are subject to database lock and final data verification.

[3] = Sink Conditions dissolution testing of Formulation C5-12; format: physicochemical; details: N = 6
Procedure: The release profiles of Formulation C5-12 of Example 1 were evaluated in a Sink Conditions dissolution study. The study was conducted in 900 mL of dissolution medium using a standard USP dissolution Apparatus 2 (paddle) operating at 100 RPM at 37±0.5° C. The dissolution medium was a 0.05 M sodium phosphate buffer pH 6.8 with 15 mM cTAB as a surfactant.

[4] = format: physicochemical
Text: Moreover, hot melt extrusion, a method commonly used to prepare amorphous solid dispersions, often involves the use of high temperature to assist the formation of a melt that is composed of all components of the final solid dispersion.
This allows the preparation of smaller solid dosage forms (e.g., tablets) comprising all three drug substances.

[5] = Human pharmacokinetic study, Example 5 Arm I (single dose, replicated crossover); format: in vivo; details: single dose, non-fasting; for AUC(0-inf) / Cmax: both sexes, human, in vivo, oral
Procedure: as §1, §2, §3, §4
Tables 5-C, 5-D, 5-E, and 5-F below report the Arm I pharmacokinetic data for Formulation C5-12 (separately reported for each of Compounds 1, 2, 3, and 4). Table 5-G presents the results of a relative bioavailability and 90% confidence interval analysis of the pharmacokinetic data for Formulation C5-12 relative to the reference regimen. The data presented in Tables 5-C through 5-G are preliminary data and are subject to database lock and final data verification by the statistician.

[6] = Human pharmacokinetic study, Example 4 Arm III (14-day multiple dose, steady state); format: in vivo; details: three Formulation C5-12 tablets daily for 14 days, non-fasting
[7] = Example 5 Arm II, multiple dose 14 days, non-fasting, Regimen B (reference regimen): two Triple Tablets + one Single Tablet morning, one Single Tablet evening, N = 63
[8] = both sexes, human, blood, oral, 3 film-coated Formulation C5-12 tablets daily, Example 5 Arm II, multiple dose 14 days, non-fasting, Regimen A (C5-12): three film-coated Formulation C5-12 tablets daily, N = 63
[9] = both sexes, human, blood, oral, Example 5 Arm II, multiple dose 14 days, non-fasting, Regimen B (reference regimen): two Triple Tablets + one Single Tablet morning, one Single Tablet evening, N = 63
[10] = Example 4 Arm II, single dose, non-fasting, Regimen E (C5-12): three Formulation C5-12 tablets in the morning, N = 13
[11] = both sexes, human, blood, oral, 3 Formulation C5-12 tablets, Example 4 Arm II, single dose, non-fasting, Regimen E (C5-12): three Formulation C5-12 tablets in the morning, N = 13
[12] = both sexes, human, blood, oral, Example 4 Arm II, single dose, non-fasting, Regimen A (reference regimen): two Triple Tablets + one Single Tablet morning, one Single Tablet evening, N = 13
[13] = Regimen A (C5-12): three film-coated Formulation C5-12 tablets, N = 172
[14] = Regimen B (reference regimen): two Triple Tablets + one Single Tablet morning, one Single Tablet evening, N = 171

**Q.** With `CC(C)c1nc(CN(C)C(=O)N[C@H](C(=O)N[C@@H](Cc2ccccc2)C[C@H](O)[C@H](Cc2ccccc2)NC(=O)OCc2cncs2)C(C)C)cs1` [Compound 3, 1,3-thiazol-5-ylmethyl N-[(2S,3S,5S)-3-hydroxy-5-[(2S)-3-methyl-2-{[methyl({[2-(propan-2-yl)-1,3-thiazol-4-yl]methyl})carbamoyl]-amino}butanamido]-1,6-diphenylhexan-2-yl]carbamate, reference compound] as the compound, how does the “Cmax, arithmetic mean, % CV” value [1, 7] read?
**A.** (1800,44) ng/mL

**Q.** What about the “Cmax, geometric mean” value [1, 7] of the same compound?
**A.** 1680 ng/mL

**Q.** What about the half-life [1, 8] of the same compound?
**A.** 4.6 h

**Q.** And the AUC [1, 8]?
**A.** 8670 ng·h/mL

**Q.** What about the concentration at 24 h [1, 8] of the same compound?
**A.** 36.2 ng/mL

**Q.** And the Cmax ([1]; both sexes, human, blood, oral, 3 film-coated Formulation C5-12 tablets daily, Example 5 Arm II, multiple dose 14 days, non-fasting, Regimen A (C5-12): three film-coated Formulation C5-12 tablets daily, N = 63, read-out: Cmax, geometric mean)?
**A.** 1340 ng/mL

**Q.** And the AUC [1, 9]?
**A.** 9580 ng·h/mL

**Q.** What about the concentration at 24 h [1, 9] of the same compound?
**A.** 35.1 ng/mL

**Q.** What about the “Cmax,ss lower than Cmax,ss for the reference regimen” value ([1]; both, human, in vivo, 14 days) of the same compound?
**A.** 21%

**Q.** And the “Exposures (C24,ss and AUC24,ss) versus the reference regimen” value ([1]; in vivo)?
**A.** bioequivalent

**Q.** What about the “Cmax, geometric mean” value ([2]; Example 4 Arm II, single dose, non-fasting, Regimen A (reference regimen): two Triple Tablets + one Single Tablet morning, one Single Tablet evening, N = 13) of the same compound?
**A.** 1170 ng/mL

**Q.** And the “AUCt, geometric mean” value [2, 10]?
**A.** 8160 ng·h/mL

**Q.** What about the “Cmax, geometric mean” value [2, 10] of the same compound?
**A.** 1160 ng/mL

**Q.** What about the t1/2 [2, 10] of the same compound?
**A.** 4.2 h

**Q.** What about the AUC(0-inf) [2, 11] of the same compound?
**A.** 8270 ng·h/mL

**Q.** What about the concentration at 24 h [2, 11] of the same compound?
**A.** 38.8 ng/mL

**Q.** And the Tmax ([2]; both sexes, human, blood, oral, 3 Formulation C5-12 tablets, Example 4 Arm II, single dose, non-fasting, Regimen E (C5-12): three Formulation C5-12 tablets in the morning, N = 13, read-out: Tmax)?
**A.** 4.9 h

**Q.** What about the half-life [2, 12] of the same compound?
**A.** 4.9 h

**Q.** And the concentration at 24 h [2, 12]?
**A.** 37 ng/mL

**Q.** What about the AUC(0-t) ([2]; both sexes, human, in vivo, Example 4 Arm II, single dose, non-fasting, Regimen A (reference regimen): two Triple Tablets + one Single Tablet morning, one Single Tablet evening, N = 13, read-out: AUCt, geometric mean) of the same compound?
**A.** 7710 ng·h/mL

**Q.** And the AUC(0-inf) ([2]; both sexes, human, in vivo, Example 4 Arm II, single dose, non-fasting, Regimen A (reference regimen): two Triple Tablets + one Single Tablet morning, one Single Tablet evening, N = 13)?
**A.** 7900 ng·h/mL

**Q.** And the “C24, arithmetic mean, % CV” value ([2]; both, human, in vivo, 24 h)?
**A.** (46.3, 62) ng/mL

**Q.** And the “% Released” value ([3]; 1 hour, 900 mL 0.05 M sodium phosphate buffer pH 6.8, 15 mM cTAB, USP Apparatus 2, 100 RPM, 37 °C)?
**A.** 58%

**Q.** And the “% Released” value ([3]; 4 hours, pH 6.8 buffer, 15 mM cTAB)?
**A.** 99%

**Q.** And the “% Released” value ([3]; 6 hours, pH 6.8 buffer, 15 mM cTAB)?
**A.** 100%

**Q.** What about the “% Released” value ([3]; 8 hours, pH 6.8 buffer, 15 mM cTAB) of the same compound?
**A.** 103%

**Q.** What about the “% Released” value ([3]; 12 hours, pH 6.8 buffer, 15 mM cTAB) of the same compound?
**A.** 102%

**Q.** And the “% Released” value ([3]; 16 hours, pH 6.8 buffer, 15 mM cTAB)?
**A.** 100%

**Q.** And the “Degradation in hot melt extrusion” value [4]?
**A.** well within the acceptable levels

**Q.** And the “Temperature beyond which degradation can reach unacceptable levels” value [4]?
**A.** > 140 °C

**Q.** And the AUC(0-inf) ([5]; 3 film-coated Formulation C5-12 tablets, Regimen A (C5-12): three film-coated Formulation C5-12 tablets, N = 172, read-out: AUC∞, geometric mean)?
**A.** 8090 ng·h/mL

**Q.** What about the Cmax ([5]; 3 film-coated Formulation C5-12 tablets, Regimen A (C5-12): three film-coated Formulation C5-12 tablets, N = 172, read-out: Cmax, geometric mean) of the same compound?
**A.** 1130 ng/mL

**Q.** And the AUC(0-inf) ([5]; Regimen B (reference regimen): two Triple Tablets + one Single Tablet morning, one Single Tablet evening, N = 171, read-out: AUC∞, geometric mean)?
**A.** 8750 ng·h/mL

**Q.** What about the Cmax ([5]; Regimen B (reference regimen): two Triple Tablets + one Single Tablet morning, one Single Tablet evening, N = 171, read-out: Cmax, geometric mean) of the same compound?
**A.** 1430 ng/mL

**Q.** What about the “AUCt, geometric mean” value [5, 13] of the same compound?
**A.** 7450 ng·h/mL

**Q.** What about the “Tmax, first value (geometric mean)” value [5, 13] of the same compound?
**A.** 4.0 h

**Q.** And the t1/2 [5, 13]?
**A.** 4.52 h

**Q.** What about the “AUCt, geometric mean” value [5, 14] of the same compound?
**A.** 8610 ng·h/mL

**Q.** And the t1/2 [5, 14]?
**A.** 4.47 h

**Q.** What about the Tmax ([6]; human, in vivo, oral, 3 Formulation C5-12 tablets daily, Day 1, N = 14) of the same compound?
**A.** 5.4 h

**Q.** And the concentration at 24 h ([6]; human, in vivo, oral, 3 Formulation C5-12 tablets daily, Day 1, N = 14, read-out: C24, geometric mean)?
**A.** 34.7 ng/mL

**Q.** What about the Tmax ([6]; human, in vivo, oral, 3 Formulation C5-12 tablets daily, Day 14, N = 14) of the same compound?
**A.** 4.7 h

**Q.** What about the AUC ([6]; human, in vivo, oral, 3 Formulation C5-12 tablets daily, Day 14, N = 14, read-out: AUC24, geometric mean) of the same compound?
**A.** 10700 ng·h/mL

**Q.** And the concentration at 24 h ([6]; human, in vivo, oral, 3 Formulation C5-12 tablets daily, Day 14, N = 14, read-out: C24, geometric mean)?
**A.** 40 ng/mL

**Q.** And the Cmax ([6]; human, in vivo, oral, 3 Formulation C5-12 tablets daily, Day 14, N = 14, read-out: Cmax, geometric mean)?
**A.** 1430 ng/mL

**Q.** And the “AUC24, geometric mean” value ([6]; Day 1, N = 14)?
**A.** 7230 ng·h/mL

**Q.** What about the “Cmax, geometric mean” value ([6]; Day 1, N = 14) of the same compound?
**A.** 921 ng/mL

**Q.** What about the t1/2 ([6]; Day 14, N = 14) of the same compound?
**A.** 4.0 h

**Q.** What about the β ([6]; Day 14, N = 14) of the same compound?
**A.** 0.174 h⁻¹
